# In patent US4833134A, “Cephem compounds” (Takeda Chemical Industries, Ltd., priority 1986, dated 1989):
# Where a name gives a salt, the structure may show the parent alone.
# Assays:
# [1] = system: Staphylococcus aureus 1840; experiment: MIC (minimum inhibitory concentration), agar dilution method; format: cell-based; settings: trypticase soy agar, ca. 10^8 CFU/ml, 37° C., 18 hours
# Method: (§1) The MIC value of the test compound was determined by agar dilution method. More specifically, 1.0 ml of an aqueous solution of the test compound diluted serially was poured into a petri dish, to which were added 9.0 ml of trypticase soy agar, followed by mixing. On the mixed agar plate was spread a suspension of the test microorganism (ca. 10^8 CFU/ml), which was incubated at 37° C. for 18 hours. The lowest concentration of the test compound completely inhibiting the growth of the test microorganism was expressed by MIC (minimum inhibitory concentration).
# (1) Staphylococcus aureus 1840
# Escherichia coli T7 = experiment: as above; format: cell-based; settings: trypticase soy agar, ca. 10^8 CFU/ml, 37° C., 18 hours
# Method: as §1
smiles,measurement,setting,value
"CCON=C(C(=O)NC1C(=O)N2C(C(=O)[O-])=C(C[n+]3ccc(SCCCN)cc3)CSC12)c1csc(N)n1 (stereo not drawn) [Example 2, 7β-[2-(2-aminothiazol-4-yl)-(Z)-2-ethoxyiminoacetamido]-3-{[4-(3-aminopropylthio)-1-pyridinium]methyl}-3-cephem-4-carboxylate hydrochloride]",MIC,[1],0.78 µg/mL
same,MIC,Escherichia coli T7,0.2 µg/mL
